US20090092975A1, “SELECTABLE MARKER” (Mologic Ltd, priority 2005, published 2009)
Where two headings read alike, the source gives them in different places.

What was measured:
[1] = cited from earlier work
[2] = system: Saccharomyces cerevisiae strain 62 expressing PAD1; type: cell-based; conditions: predicted decarboxylation product in headspace; weak acid 0.5 mM, YEPD pH 4, 10 h at 28° C.; 0 = no decarboxylation
Method: S. cerevisiae strain 62 (which expresses the PAD1 gene) was cultured for 48 hr in YEPD pH 4, Yeast extract 10 g, Peptone 20 g, Glucose 20 g, at 28° C. in a shake flask, 120 rpm. The stationary-phase cells were inoculated into capped 28 ml McCartney bottles containing 10 mls YEPD pH 4, at 1 million cells per ml. Each bottle also contained one of 70 substrate weak acids at 0.5 mM. Tubes were then shaken for 10 h at 28° C.
1 ml samples of the headspace were passed into stainless-steel thermal desorption tubes, followed by a 10 ml air flush. (Desorption tubes—89 mm×5 mm ID, packed with 200 mg Tenax TA 60-80 mesh, Phase Separations, UK).
Thermal desorption tubes were placed in a Perkin Elmer ATD400 thermal desorption system, and the volatiles transferred to the Gas Chromatograph in a 2 stage process. Primary desorption was 250° C. for 10 min with a helium flow of […]. Using a split ratio of 1:1, volatiles were retained on a cold trap (25 mg Tenax TA) held at −30° C. Secondary desorption was carried out by rapidly heating and holding the cold trap at 250° C. for 2 min, with a helium flow of 20 ml/min and split ratio of 19:1. A DB624 column {30 m×0.32 mm, 1.8 microns film thickness} installed in a Carbo Erba GC800 was used to achieve separation and introduction of the volatile to the mass spectrometer. The column temperature was held at 40° C. for 2 min then increased at 5° C./min to 250° C. The column outlet was coupled via a heated transfer line at 250° C. into the ion source of the mass spectrometer operated at 70 eV in electron ionization (EI) mode. The source temperature was at 200° C. and the detector photomultiplier at 500V. Full scan MS data acquisition was carried out from m/z 30 to 300, with 0.6 sec scan and 0.05 sec inter scan delay.
The results are shown in Table 3, in each case the “predicted product” being the product which would be produced if decarboxylation of the weak acid were to take place.

[3] = system: S. cerevisiae BY4741 (PAD1) and S. cerevisiae YO5833 (Δ pad1); assay: Selection of PAD1-gene containing yeast in broth culture by weak acid; type: cell-based, Saccharomyces cerevisiae; conditions: buffered YEPD pH 4.0, 14 days at 25° C., growth by OD 600 nm
Method: Flasks were cultured at 25° C. for 14 days, shaken at 120 rpm on an orbital shaker (25 mm orbit). After 14 days, yeast growth was measured by spectrophotometer at 600 nm (Optical Density, OD 600 nm).
Yeast strains S. cerevisiae BY4741 (PAD1) and S. cerevisiae YO5833—Euroscarf (Δ pad1) were separately inoculated at 10^3 cells/ml into 100 ml conical flasks containing 50 mls buffered YEPD pH 4.0 (glycerol 20 g/l, Bacteriological peptone 20 g/l, yeast extract 10 g/l, succinic acid 3 g/l, adjusted to pH 4.0 with potassium hydroxide) each containing higher concentrations of 4-Methylcinnamic acid, 0-0.11 mM. Flasks were cultured for 14 days at 25° C., shaken at 160 rpm on an orbital shaker (25 mm orbit). After 14 days, yeast growth was measured by spectrophotometer at 600 nm (Optical Density, OD 600 nm).

[4] = system: S. cerevisiae BY4741 (PAD1); assay: Selection in agar, growth of PAD1-containing yeast; type: cell-based, Saccharomyces cerevisiae; conditions: 4-Methylcinnamic acid 0.096 mM in agar, pH 4.0, 10 days at 25° C.
Method: (§1) Buffered YEPD containing 4-Methylcinnamic acid, was prepared as follows: glycerol 20 g/l, Bacteriological peptone 20 g/l, yeast extract […], agar 15 g/l, succinic acid 3 g/l, 4-Methylcinnamic acid 15.55 mg/l (0.096 mM). Agar was sterilised by autoclaving at pH 6.0, cooled to 50° C., adjusted to pH 4.0, then poured into Petri dishes and allowed to set. Agar plates were spread with dilute cultures of S. cerevisiae BY4741 (PAD1) (upper half of plate—FIG. 8), and dilute cultures of S. cerevisiae YO5833—Euroscarf (Δ pad1) on the lower half of the plate.

[5] = system: S. cerevisiae YO5833 (Δ pad1); assay: Selection in agar, growth of Δ pad1 yeast; type: cell-based, Saccharomyces cerevisiae; conditions: 4-Methylcinnamic acid 0.096 mM in agar, pH 4.0, 10 days at 25° C.
Method: as §1

[6] = system: decarboxylase from mould spores; conditions: 1 mM sorbic acid, equimolar 1,3-pentadiene in headspace within 18 hours; cited from earlier work
[7] = Table 1, monocarboxylic weak acids
[8] = Table 2, most preferred weak acids

SMILES	Pka [1, 7]	GCMS Peak area [2]	other results
CCCC/C=C/C(=O)O [trans-2-Heptenoic acid]	3.7839	0	
O=C(O)C=Cc1ccoc1 [3-Furan-acrylic acid]	3.9	2165	Pka [1, 8]: 3.9
COc1cc(/C=C/C(=O)O)ccc1O [Ferulic acid]	4.58	0	
C=CC=CC(=O)O [2,4-Pentadienoic acid]	4.72	107	Pka [1, 8]: 4.72
O=C(O)C=Cc1ccccc1O [2-Hydroxy-cinnamic acid]	4.7	0	
CCCCCCC(=O)O [Heptanoic acid]	4.8	0	
O=C(O)C=Cc1cccs1 [3-(2-Thienyl)acrylic acid]	4.2	20571	Pka [1, 8]: 4.2
CC(=Cc1ccccc1)C(=O)O [alpha-methyl-cinnamic acid]	4.45	889	Pka [1, 8]: 4.45
Cc1ccc(C=CC(=O)O)cc1 [4-Methyl-cinnamic acid]		11013	concentration range showing good selection for PAD1-containing yeasts [3]: 0.075 to 0.11 mM; growth of PAD1-containing yeast cells on agar [4]: formed large colonies; growth of Δ pad1 yeast on agar [5]: barely perceptible
C/C=C/CCC(=O)O [trans-4-Hexenoic acid]	4.6984	0	
C/C=C/C(=O)O [Crotonic acid]	4.17	0	
C=CCC/C=C/C(=O)O [trans, trans-2,6-Heptadienoic acid]	3.7528	0	
O=C(O)/C=C/c1ccc(O)c(O)c1 [Caffeic acid]	4.7	0	
O=C(O)C(F)=Cc1ccccc1 [alpha-fluoro-cinnamic acid]	4.45	2659	Pka [1, 8]: 4.45
CC/C=C/CC(=O)O [trans-3-Hexenoic acid]	4.608	0	
O=C(O)C=Cc1ccc(F)cc1 [4-Fluoro-cinnamic acid]		18699	concentration range showing good selection for PAD1-containing yeasts [3]: 0.15 to 0.225 mM

SMILES	Pka [1, 7]	GCMS Peak area [2]	other results
C/C=C/C=C/C(=O)O [Sorbic acid]		8795	removal of weak acid by decarboxylase [6]: completely removed
O=C(O)C=Cc1cccc(O)c1 [3-Hydroxy-cinnamic acid]	4.6	0	
CC/C=C\CC(=O)O [cis-3-Hexenoic acid]	4.608	0	
CC(C)=CCC/C(C)=C/C(=O)O [Geranic acid]	4.7211	0	
CC/C=C/C(=O)O [trans-2-Pentenoic acid]	4.1578	0	
CCCCCCCC=CC(=O)O [2-Decenoic acid]	3.9018	0	
CCCCCCC=CC(=O)O [2-Nonenoic acid]	3.9148	0	
O=C(O)C/C=C/c1ccccc1 [trans-Styrylacetic acid]	4.688	0	
C=CCCCC(=O)O [5-Hexenoic acid]	4.81	0	
CCCCC/C=C/C(=O)O [trans-2-Octenoic acid]	3.902	0	
CCC/C=C/C(=O)O [trans-2-Hexenoic acid]	3.8306	0	
O=C(O)C=Cc1ccsc1 [3-(3-Thienyl)acrylic acid]	4.1	1586	Pka [1, 8]: 4.1
O=C(O)CCc1ccccc1 [Hydrocinnamic acid]		0	
O=C(O)C=Cc1cccc(Cl)c1 [3-Choro-cinnamic acid]		907	
O=C(O)C=Cc1ccccc1C(F)(F)F [2-Trifluoromethyl-cinnamic acid]		1440	
O=C(O)C=Cc1ccccc1Br [2-Bromo-cinnamic acid]		2912	
